In patent US20240246995A1, “PYRIMIDINONE DERIVATIVE AND PREPARATION METHOD THEREFOR, PHARMACEUTICAL COMPOSITION, AND USE” (SHANGHAI SIMR BIOTECHNOLOGY CO., LTD., priority 2021, published 2024) one finds IC50 data, which are given here for 8 compounds.

The assay deals with T1, Lipoprotein-Related Phospholipase A2 (Lp-PLA2) in Human Plasma (Homo sapiens, UniProt Q13093).
T1 construct: 40 μL of equally-divided and thawed mixed human plasma is pre-added; from tissue; host or cells: mixed (pooled) human plasma
T1 sequence (Q13093 22-441): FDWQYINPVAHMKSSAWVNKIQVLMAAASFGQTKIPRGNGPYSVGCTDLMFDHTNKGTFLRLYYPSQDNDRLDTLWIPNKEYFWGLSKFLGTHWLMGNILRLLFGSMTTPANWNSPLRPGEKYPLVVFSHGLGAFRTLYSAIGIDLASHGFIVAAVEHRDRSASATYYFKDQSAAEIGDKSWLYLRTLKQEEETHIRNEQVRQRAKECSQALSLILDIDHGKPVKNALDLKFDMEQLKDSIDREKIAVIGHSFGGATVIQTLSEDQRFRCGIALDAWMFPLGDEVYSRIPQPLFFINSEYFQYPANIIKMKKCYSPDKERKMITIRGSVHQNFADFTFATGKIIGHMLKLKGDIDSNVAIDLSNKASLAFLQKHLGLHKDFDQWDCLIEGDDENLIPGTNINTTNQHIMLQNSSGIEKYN
Put plainly: Determination of Lp-PLA2 in human plasma (Thio-PAF assay). It counts as biochemical. Particulars: mixed human plasma, 2-thio-PAF substrate, 30 minutes pre-incubation at room temperature. From the text: Determination of Lipoprotein-Related Phospholipase A2 (Lp-PLA2) in Human Plasma.
Human plasma determination utilizes a thioester analogue of phosphatidylcholine (PAF), where hydrolysis leads to the formation of phospholipids containing free thiol groups. The amount of the thiol groups is continuously determined by reacting with CPM (7-diethylamino-3-(4′-maleimidophenyl)-4-methylcoumarin), which is maleimide with increased fluorescence after Michael addition of the thiol groups. This determination can detect the activity of Lp-PLA2 in human plasma, for example, determined by the specific inhibition of the Lp-PLA2 inhibitors.
Thio-PAF determination, as quenched 75 μL determination, is carried out. A compound source plate is prepared by preparing a 1:3 (volume) series of diluents of each compound in pure DMSO on a 96-well microplate. A Rainin multi-channel pipette is used to transfer 3 μL of a compound on the compound source plate into a 96-well microplate where 57 μL of a determination buffer is pre-added, and the compound on the source plate is diluted by 20 folds. The above determination buffer contains 50 mM HEPES (pH 7.4), 150 mM NaCl, and 1 mM CHAPS. A Rainin multi-channel pipette is used to transfer 1 μL of the compound subjected to 20-fold dilution into a 96-well Greiner 655076 (black) microplate where 40 μL of equally-divided and thawed mixed human plasma is pre-added. The plate is oscillated for 20 seconds in an Elisa plate oscillator to be mixed evenly. After 30 minutes of pre-incubation at the room temperature, a Rainin multi-channel pipette is used to add 10 μL of a substrate solution to a 96-well Greiner 655076 (black) microplate, and the substrate solution contains 2.5 mM 2-thio-PAF [from ethanol mother liquor], 32 μM CPM [from DMSO mother liquor] and 3.2 mM NEM (N-ethylmaleimide) [newly prepared in DMSO for each experiment] in a determination buffer composed of 50 mM HEPES (pH 7.4), 150 mM NaCl, and 1 mM CHAPS. After 2 minutes, 25 μL of a 5% trifluoroacetic acid (TFA) aqueous solution is used for quenching the reaction. The plate is centrifuged at 2000 rpm for 1 minute. A Biotek Synergy H1 (H1MF) Elisa reader is used to read the plate at ex:380/em:485. GraphPad Prism 6.0 and Excel are used for IC50 data, curve, and QC analysis.
For `O=c1nc(OCc2cc(F)c(Oc3ccnc(OC(F)(F)F)c3)c(F)c2)cc2n1CCC1COCCN21` (centres unmarked) [Example 54, 2-((3,5-difluoro-4-((2-(trifluoro-methoxy)pyrid-4-yl)oxy)benzyl)oxy)-6,7,7a,8,10,11-hexahydro-4H-pyrimidinyl [6′,1′:2,3] pyrimidine [6,1-c][1,4] oxazin-4-one], the concentration for half-maximal inhibition (IC50) amounted to 5.3 nM.

For the compound `O=c1nc(OCc2cc(F)c(Oc3cnc(C(F)(F)F)nc3)c(F)c2)cc2n1CCC1CCCCN21` (centres unmarked) [Example 45, 2-((3,5-difluoro-4-((2-(trifluoromethyl)pyrimidin-5-yl)oxy)benzyl)oxy)-7,7a,8,9,10,11-hexahydro-4H,6H-pyridino[1,2-c]pyri-mido[1,6-a] pyrimidine-4-one], the half-maximal inhibitory concentration (IC50) turned out to be 66.5 nM. With `N#Cc1cc(COc2cc3n(c(=O)n2)CCC2CCCCN32)ccc1Oc1cccc(C(F)(F)F)c1` (centres unmarked) [Example 44], the IC50 came to 14.9 nM. For `O=c1nc(OCc2cc(F)c(Oc3ccnc(OC(F)(F)F)c3)c(F)c2)cc2n1CCC13CC(CN21)C3` [Example 18] the value was 11 nM; for `N#Cc1cc(COc2cc3n(c(=O)n2)CC[C@]24CO[C@H](CN32)C4)ccc1F` [Example 10], 10.8 nM.

For the compound `CCC12CCCN1c1cc(OCc3cc(F)c(Oc4ccc(Cl)c(C(F)(F)F)c4)c(F)c3)nc(=O)n1CC2` (centres unmarked) [Example 39, 2-((4-(4-chloro-3-(trifluoromethyl)phenoxy)-3,5-difluorobenzyl)oxy)-7a-ethyl-6,7,7a,8,9, 10-hexahydro-4H-pyrimidinyl[1,6-a] pyrrolo[1,2-c] pyrimidine-4-one], the IC50 was found to be 33.1 nM. For `CCC12CCCN1c1cc(OCCc3ccc(Oc4ccc(Cl)c(C(F)(F)F)c4)cc3)nc(=O)n1CC2` (centres unmarked) [Example 41, 2-(4-(4-chloro-3-(trifluoromethyl)phenoxy)phenyl-ethoxy)-7a-ethyl-6,7,7a, 8,9,10-hexahydro-4H-pyrimidine [1,6-a]pyrrole[1,2-c]pyrimidine-4-one], the 50% inhibitory concentration (IC50) turned out to be 235 nM. Take `O=c1nc(OCc2cc(F)c(Oc3cnc(C(F)(F)F)nc3)c(F)c2)cc2n1CC[C@]13CO[C@H](CN21)C3` [Example 9]: the IC50 came to 6.3 nM.

By IC50 is commonly meant the concentration that gives 50% inhibition.
